The values below come from PubChem BioAssay AID328 (DTP/NCI, 2004).

For the test, the system named is BDF1 mice, P388 leukemia ip, median survival T/C. Briefly: NCI In Vivo Anticancer Drug Screen. Data for tumor model P388 Leukemia (intraperitoneal) in B6D2F1 (BDF1) mice. The settings on record: endpoint: median survival time, higher = longer survival. In outline:
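Antitumour effect was judged in vivo: survival in drug-treated mice, normalised to that of vehicle-dosed controls, gives the reported T/C.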

[1] abbreviates: dose: 100.0 mg/kg/injection, schedule: Q04DX003 (ip), vehicle: other.
The mark [2] stands for this setting: dose: 200.0 mg/kg/injection, schedule: Q04DX003 (ip), vehicle: other.
The mark [3] stands for this setting: dose: 400.0 mg/kg/injection, schedule: Q04DX003 (ip), vehicle: other.

“And” between values parts separate entries of the source, which are not always exact repeats. Identical values can stand only once. Toxic doses and inconclusive results are not listed.

In the case of `COC1=CC(=O)c2c(O)cc(OC)cc2C1=O`, the T/C reads like this: (dose: 1.25 mg/kg/injection, schedule: Q01DX009 (ip), vehicle: saline with Tween-80) 120 % of control; (dose: 2.5 mg/kg/injection, schedule: Q01DX009 (ip), vehicle: saline with Tween-80) 95 % of control.
As for `CC(C)COC(=O)CN(CC(=O)OCC(C)C)c1ccccc1`, the T/C runs as follows: (dose: 100.0 mg/kg/injection, schedule: Q01DX009 (ip), vehicle: saline with Tween-80) 95 % of control; (dose: 200.0 mg/kg/injection, schedule: Q01DX009 (ip), vehicle: saline with Tween-80) 100 % of control; (dose: 400.0 mg/kg/injection, schedule: Q01DX009 (ip), vehicle: saline with Tween-80) 110 % of control.
Consider `Clc1ccc(NC2=NCCN=C(Nc3ccc(Cl)cc3)SS2)cc1`, for which the T/C was 91 % of control (dose: 50.0 mg/kg/injection, schedule: Q01DX009 (ip), vehicle: Klucel (hydroxypropylcellulose) (HPC)) and 91 % of control (dose: 100.0 mg/kg/injection, schedule: Q01DX009 (ip), vehicle: Klucel (hydroxypropylcellulose) (HPC)).
With `COc1ccccc1-n1c(=O)c(N=Nc2ccccc2)c(O)n(-c2ccccc2C)c1=S`, the T/C is 95 % of control (dose: 100.0 mg/kg/injection, schedule: Q01DX001 (ip), vehicle: saline with Tween-80) and 95 % of control (dose: 200.0 mg/kg/injection, schedule: Q01DX001 (ip), vehicle: saline with Tween-80).
With `CS(=O)(=O)OCCN(CCOS(C)(=O)=O)c1ccccc1`, the T/C was 150 % of control (dose: 16.5 mg/kg/injection, schedule: Q04DX003 (ip), vehicle: saline with Tween-80); 113 % of control (dose: 16.5 mg/kg/injection, schedule: Q04DX003 (ip), vehicle: saline); 222 % of control (dose: 37.5 mg/kg/injection, schedule: Q04DX003 (ip), vehicle: saline with Tween-80).
For the compound `CC1(C)CCC(=O)O1`, the T/C (dose: 25.0 mg/kg/injection, schedule: Q01DX009 (ip), vehicle: water) is 104 % of control; the T/C (dose: 50.0 mg/kg/injection, schedule: Q01DX009 (ip), vehicle: water) was 104 % of control; the T/C (dose: 100.0 mg/kg/injection, schedule: Q01DX009 (ip), vehicle: water) is 91 % of control; the T/C (dose: 200.0 mg/kg/injection, schedule: Q01DX009 (ip), vehicle: water) was 103 % of control; the T/C (dose: 400.0 mg/kg/injection, schedule: Q01DX009 (ip), vehicle: water) was 91 % of control.
As for `OCCNc1ccc(I)cc1`, the T/C reads like this: under setting [1], 113 % of control; under setting [2], 122 % of control; under setting [3], 104 % of control.
As to `O=P1(N(CCCl)CCCl)NCCCO1` (stereo unspecified), the T/C reads like this: (dose: 6.25 mg/kg/injection, schedule: Q01DX009 (ip), vehicle: saline) 120 % of control; (dose: 10.0 mg/kg/injection, schedule: Q01DX010 (ip), vehicle: water) 227 % of control; (dose: 10.0 mg/kg/injection, schedule: Q01DX015 (ip), vehicle: saline) 167 % of control; (dose: 11.25 mg/kg/injection, schedule: Q01DX010 (ip), vehicle: saline) 186 % of control; (dose: 12.5 mg/kg/injection, schedule: Q01DX009 (ip), vehicle: saline) 124 % of control and 206 % of control; (dose: 15.0 mg/kg/injection, schedule: Q01DX015 (ip), vehicle: saline) 202 % of control and 216 % of control. Besides, the T/C (dose: 20.0 mg/kg/injection, schedule: Q01DX010 (ip), vehicle: saline) is 235 % of control and 259 % of control and 280 % of control; the T/C (dose: 20.0 mg/kg/injection, schedule: Q01DX010 (ip), vehicle: water) was 272 % of control; the T/C (dose: 20.0 mg/kg/injection, schedule: Q01DX015 (ip), vehicle: saline) was 245 % of control and 219 % of control; the T/C (dose: 25.0 mg/kg/injection, schedule: Q01DX009 (ip), vehicle: saline) is 257 % of control and 165 % of control; the T/C (dose: 25.0 mg/kg/injection, schedule: Q01DX015 (ip), vehicle: saline) is 272 % of control and 349 % of control; the T/C (dose: 25.0 mg/kg/injection, schedule: Q04DX003 (ip), vehicle: saline) is 150 % of control and 179 % of control. Besides, the T/C (dose: 25.0 mg/kg/injection, schedule: Q04DX003 (ip), vehicle: water) was 283 % of control; the T/C (dose: 30.0 mg/kg/injection, schedule: Q01DX010 (ip), vehicle: saline) is 272 % of control and 300 % of control (2×); the T/C (dose: 30.0 mg/kg/injection, schedule: Q01DX015 (ip), vehicle: saline) is 356 % of control and 423 % of control; the T/C (dose: 31.3 mg/kg/injection, schedule: Q01DX001 (ip), vehicle: saline) is 163 % of control; the T/C (dose: 37.5 mg/kg/injection, schedule: Q01DX001 (ip), vehicle: saline) was 153 % of control; the T/C (dose: 50.0 mg/kg/injection, schedule: Q01DX001 (ip), vehicle: saline) was 159 % of control and 175 % of control. In addition, the T/C by setting is: (dose: 50.0 mg/kg/injection, schedule: Q01DX009 (ip), vehicle: saline) 250 % of control and 111 % of control and 112 % of control; (dose: 50.0 mg/kg/injection, schedule: Q04DX003 (ip), vehicle: saline) 258 % of control and 192 % of control; (dose: 50.0 mg/kg/injection, schedule: Q04DX003 (ip), vehicle: water) 111 % of control; (dose: 50.0 mg/kg/injection, schedule: Q08DX002 (ip), vehicle: saline) 218 % of control; (dose: 62.5 mg/kg/injection, schedule: Q01DX001 (ip), vehicle: saline) 190 % of control; (dose: 70.0 mg/kg/injection, schedule: Q04DX003 (ip), vehicle: saline) 258 % of control and 98 % of control. The T/C (dose: 75.0 mg/kg/injection, schedule: Q04DX003 (ip), vehicle: saline) was 557 % of control; the T/C (dose: 86.4 mg/kg/injection, schedule: Q01DX001 (ip), vehicle: saline) was 234 % of control and 117 % of control and 193 % of control; the T/C (dose: 89.0 mg/kg/injection, schedule: Q01DX001 (ip), vehicle: saline) was 197 % of control; the T/C (dose: 100.0 mg/kg/injection, schedule: Q01DX009 (ip), vehicle: saline) was 100 % of control and 112 % of control and 113 % of control; the T/C (dose: 100.0 mg/kg/injection, schedule: Q04DX003 (ip), vehicle: water) was 91 % of control; the T/C (dose: 100.0 mg/kg/injection, schedule: Q08DX002 (ip), vehicle: saline) was 267 % of control. Besides, the T/C is, setting by setting: (dose: 125.0 mg/kg/injection, schedule: Q01DX001 (ip), vehicle: saline) 293 % of control; (dose: 144.0 mg/kg/injection, schedule: Q01DX001 (ip), vehicle: saline) 297 % of control and 541 % of control and 198 % of control; (dose: 180.0 mg/kg/injection, schedule: Q01DX001 (ip), vehicle: water) 244 % of control; (dose: 200.0 mg/kg/injection, schedule: Q04DX003 (ip), vehicle: saline) 103 % of control; (dose: 200.0 mg/kg/injection, schedule: Q08DX002 (ip), vehicle: saline) 270 % of control; (dose: 240.0 mg/kg/injection, schedule: Q01DX001 (ip), vehicle: saline) 290 % of control and 544 % of control. Besides, the T/C reads like this: (dose: 300.0 mg/kg/injection, schedule: Q01DX001 (ip), vehicle: water) 268 % of control; (dose: 400.0 mg/kg/injection, schedule: Q08DX002 (ip), vehicle: saline) 88 % of control; (dose: 500.0 mg/kg/injection, schedule: Q01DX001 (ip), vehicle: water) 252 % of control; (dose: 600.0 mg/kg/injection, schedule: Q01DX001 (ip), vehicle: saline) 54 % of control.
Take `CCC1CC(O)c2c(O)c3c(c(O)c2C1O)C(=O)c1cccc(O)c1C3=O` (stereo unspecified) (tested in a mixture with another compound): the T/C was 100 % of control (dose: 0.5 mg/kg/injection, schedule: Q01DX001 (ip), vehicle: saline); 109 % of control (dose: 1.0 mg/kg/injection, schedule: Q01DX001 (ip), vehicle: saline); 109 % of control (dose: 2.0 mg/kg/injection, schedule: Q01DX001 (ip), vehicle: saline).
Consider `O=C(N/N=C/c1cccc(Cl)c1)c1ccccc1`, for which the T/C under setting [1] is 95 % of control, the T/C under setting [2] was 95 % of control and the T/C under setting [3] was 113 % of control.
